Measurements taken from patent publication US6787545B1, “Pyrrolotriazine derivatives having spla2-inhibitory activities” (Shiongi & Co., Ltd., priority 1999, dated 2004).

Columns and labels:
[1] = target: T1, recombinant human secretory phospholipase A2 (Homo sapiens, UniProt P14555); test: Inhibition test of human secretory phospholipase A2 (chromogenic assay, 96 well microtiterplate); assay type: biochemical; details: sPLA2 50 ng/well, 40° C., 30 minutes, OD 405 nm, substrate 1,2-bis(heptanoylthio)-1,2-dideoxy-sn-glycero-3-phospholylcholine
T1 sequence (P14555 21-144): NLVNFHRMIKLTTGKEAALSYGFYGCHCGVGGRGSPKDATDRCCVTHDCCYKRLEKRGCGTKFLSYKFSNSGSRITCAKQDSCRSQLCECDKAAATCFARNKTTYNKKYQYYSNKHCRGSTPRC
From the text: Inhibition Test of Human Secretory Phospholipase A2 Analytical Experiment
In order to identify and evaluate an inhibitor of recombinant human secretory phospholipase A2, the following chromogenic assay is utilized. The assay herein has been applied for high volume screening wherein 96 well microtiterplate is used. A general explanation for such assay is described in “Analysis of Human Synovial Fluid Phospholipase A2 on Short Chain Phosphatidylcholine-Mixed Micelles: Development of a Spectrophotometric Assay Suitable for a Micortiterplate Reader” (Analytical Biochemistry, 204, pp 190-197, 1992 by Laure. J. Reynolds. Lori L. Hughes and Edward A. Dennis: the disclosure of which is incorporated herein for reference.
1 mg of sPLA2 is dissolved in 1 ml of an enzyme buffer. Thereafter, the solution is maintained at 4° C.
In the assay, 5 μl of the solution is diluted with 1995 μl of the reaction buffer to be used.
198 mg of 5,5′-dithiobis-2-[…] (manufactured by Wako Pure Chemicals) is dissolved in 100 ml of H2O
pH 7.5 (adjusted with NaOH)
100 mg of racemic 1,2-bis(heptanoylthio)-1,2-dideoxy-sn-glycero-3-phospholylcholine is dissolved in 1 ml of chloroform.
624.9 mg of Triton-X 100 is dissolved in the reaction buffer.
Enzyme Reaction: for 1 Plate of Microtiterplate
1) 0.106 ml of the substrate solution is put in a centrifugal tube, and nitrogen gas is jetted to remove the solvent. 0.54 ml of Triton-X 100 is added thereto, the mixture is stirred, thereafter it is sonified in a bath type sonification to dissolve. To the resulting product are added 17.8 ml of the reaction buffer and 0.46 ml of DTNB, and 0.18 ml each of the admixture is poured to wells of the 96 well microtiterplate.
2) 10 μl of a test compound (or solvent blank) are added in accordance with alignment of plates which has been previously set.
3) Incubation is effected at 40° C. for 15 minutes.
4) 20 μl of an enzyme solution (sPLA2) which has been previously diluted (50 ng/well) are added to start reaction (40° C., 30 minutes).
5) Changes in absorbancy for 30 minutes are measured by a plate reader, and inhibition activity was calculated (OD: 405 nm).
6) IC50 was determined by plotting log concentration with respect to inhibition values within 10% to 90% inhibiting range.

SMILES | IC50 [1] [nM] | melting point [°C]
COC(=O)COc1nc(C)nn2c(Cc3ccccc3)c(C)c(C(=O)C(N)=O)c12 [Compound I-1] | 203 | –
Cc1nc(OCC(=O)O)c2c(C(=O)C(N)=O)c(C)c(Cc3ccccc3)n2n1 [Compound I-2] | 13 | 195 to 197
CCc1c(C(=O)C(N)=O)c2c(OCC(=O)OC)nc(C)nn2c1Cc1ccccc1 [Compound I-3] | 317 | 170 to 171
CCc1c(C(=O)C(N)=O)c2c(OCC(=O)O)nc(C)nn2c1Cc1ccccc1 [Compound I-4] | 11 | 207 to 209
CCc1c(C(=O)C(N)=O)c2c(OCC(=O)O)nc(C)nn2c1Cc1ccccc1-c1cccs1 [Compound I-6] | 11 | 184 to 186
CCc1c(C(=O)C(N)=O)c2c(OCC(=O)OC)nc(C)nn2c1Cc1ccccc1-c1ccccc1 [Compound I-7] | 607 | –
CCc1c(C(=O)C(N)=O)c2c(OCC(=O)O)nc(C)nn2c1Cc1ccccc1-c1ccccc1 [Compound I-8] | 8 | 174 to 176
